Patent US11363816B2, “4-amino-6-(heterocyclic)picolinates and 6-amino-2-(heterocyclic)pyramidine-4-carboxylates and their use as herbicides” (Dow AgroSciences LLC, priority 2017, dated 2022)

Assays:
Format in all cases: in vivo
[1] = test system: ANTAR=Anthemis arvensis (field chamomile); experiment: Postemergent herbicidal activity in the greenhouse; conditions: 21-28 DAAA
Experimental: (§1) Seeds of the desired test plant species were planted in Sun Gro MetroMix® 306 planting mixture, which typically has a pH of 6.0 to 6.8 and an organic matter content of about 30 percent, in plastic pots with a surface area of 103.2 square centimeters (cm^2). When required to ensure good germination and healthy plants, a fungicide treatment and/or other chemical or physical treatment was applied. The plants were grown for 7-36 days (d) in a greenhouse with an approximate 14 hour (h) photoperiod which was maintained at about 18° C. during the day and 17° C. during the night. Nutrients and water were added on a regular basis and supplemental lighting was provided with overhead metal halide 1000-Watt lamps as necessary. The plants were employed for testing when they reached the second or third true leaf stage.
(§2) An aliquot of formulated Compound 5 (100 grams acid equivalent per liter (g ae/L); emusifiable concentrate (EC)), Compound 6 (100 g ae/L; EC) or Compound 7 (100 g ae/L; EC) was placed in a 25 mL glass vial and diluted in a volume of 1.25% (volume per volume (v/v)) aqueous Actirob B esterified rapeseed oil to obtain a stock solution. The concentrated stock solutions were diluted with an aqueous mixture of 1.25% v/v of aqueous Actirob B esterified rapeseed oil to provide the appropriate application rates. Compound requirements are based upon a 12 mL application volume at a rate of 187 liters per hectare (L/ha). Formulated compounds were applied to the plant material with an overhead Mandel track sprayer equipped with 8002E nozzles calibrated to deliver 187 L/ha over an application area of 0.503 square meters (m^2) at a spray height of 18 inches ([…]) above average plant canopy. Control plants were sprayed in the same manner with the solvent blank.
(§3) The treated plants and control plants were placed in a greenhouse as described above and watered by subirrigation to prevent washoff of the test compounds. After 20-22 d, the condition of the test plants as compared with that of the control plants was determined visually and scored on a scale of 0 to 100 percent where 0 corresponds to no injury and 100 corresponds to complete kill. […]
(§4) The values reported are means.

[2] = test system: CHEAL=Chenopodium album L. (common lambsquarters); experiment: Postemergent herbicidal activity in the greenhouse; conditions: 21-28 DAAA
Experimental: as §1, §2, §3, §4

[3] = test system: CIRAR=Cirsium arvense (L.) Scop. (Canada thistle); experiment: Postemergent herbicidal activity in the greenhouse; conditions: 21-28 DAAA
Experimental: as §1, §2, §3, §4

[4] = test system: KCHSC=Kochia scoparia (L.) Schrad. (Kochia); experiment: Postemergent herbicidal activity in the greenhouse; conditions: 21-28 DAAA
Experimental: as §1, §2, §3, §4

[5] = test system: MATCH=Matricaria recutita L. (wild chamomile); experiment: Postemergent herbicidal activity in the greenhouse; conditions: 21-28 DAAA
Experimental: as §1, §2, §3, §4

[6] = test system: MATIN=Matricaria inodora (scentless mayweed); experiment: Postemergent herbicidal activity in the greenhouse; conditions: 21-28 DAAA
Experimental: as §1, §2, §3, §4

[7] = test system: PAPRH=Papaver rhoeas L. (common poppy); experiment: Postemergent herbicidal activity in the greenhouse; conditions: 21-28 DAAA
Experimental: as §1, §2, §3, §4

[8] = test system: POLCO=Polygonum convolvulus L. (wild buckwheat); experiment: Postemergent herbicidal activity in the greenhouse; conditions: 21-28 DAAA
Experimental: as §1, §2, §3, §4

[9] = test system: Res-PAPRH=Papaver rhoeas L. (common poppy) resistant to tribenuron and thifensulfuron (ALS) and 2,4-D; experiment: Postemergent herbicidal activity in the greenhouse; conditions: 21-28 DAAA
Experimental: as §1, §2, §3, §4

[10] = test system: SINAR=Sinapis arvensis L. (wild mustard); experiment: Postemergent herbicidal activity in the greenhouse; conditions: 21-28 DAAA
Experimental: as §1, §2, §3, §4

[11] = test system: VERSS=Veronica spp (speedwell); experiment: Postemergent herbicidal activity in the greenhouse; conditions: 21-28 DAAA
Experimental: as §1, §2, §3, §4

[12] = test system: CHEAL=Chenopodium album L. (common lambsquarters); experiment: Postemergence field trial, Ellerslie, Alberta, Canada
Experimental: (§5) Field trials were established in Canada (in Ellerslie, Alberta; Nisku, Alberta and Hanley, Saskatchewan) to evaluate the efficacy of Compound 5, Compound 6, and Compound 7. Trials were designed as randomized complete blocks with four replicates. Trials were established in spring wheat with natural weed population with plot sizes of 2-3 meters (m) by 8-10 m (width×length). The crops were grown using normal cultural practices for fertilization, seeding, and maintenance to ensure good growth of the crop.
(§6) All herbicide treatments were applied post-emergence with applications made to the crops at BBCH (Phenological development stages of a plant) 14 to 22 growth stage. Herbicides were applied with backpack or bicycle sprayers using carbon dioxide (CO2) as a propellant. The sprayers utilized flat fan air-induction spray nozzles calibrated to deliver a uniform spray pattern that provided thorough coverage of the foliage using a 100 L/ha spray volume. All treatments were applied with methylated seed oil (MSO) at 1.25% v/v. Phytotoxicity to the weeds was assessed visually at several intervals after application as percent overall control, compared to an untreated control plot. In general, four replicates were assessed for each treatment. All treatment results are an average of four replicates.
(§7) Compound 5, Compound 6 and Compound 7 were applied as emulsifiable concentrate (EC) formulations at 100 g ae/L EC, respectively.

[13] = test system: POLCO=Polygonum convolvulus L. (wild buckwheat); experiment: as above
Experimental: as §5, §6, §7

[14] = test system: STEME=Stellaria media (L.) Vill. (common chickweed); experiment: as above
Experimental: as §5, §6, §7

Row | Structure (SMILES) | Percent (%) Visual Control ANTAR ([1]; 10 g ae/ha) [%] | Percent (%) Visual Control ANTAR ([1]; 20 g ae/ha) [%] | Percent (%) Visual Control CHEAL ([2]; 10 g ae/ha) [%] | Percent (%) Visual Control CHEAL ([2]; 20 g ae/ha) [%] | Percent (%) Visual Control CIRAR ([3]; 10 g ae/ha) [%] | Percent (%) Visual Control CIRAR ([3]; 20 g ae/ha) [%] | Percent (%) Visual Control KCHSC ([4]; 10 g ae/ha) [%] | Percent (%) Visual Control KCHSC ([4]; 20 g ae/ha) [%] | Percent (%) Visual Control MATCH ([5]; 10 g ae/ha) [%] | Percent (%) Visual Control MATCH ([5]; 20 g ae/ha) [%] | Percent (%) Visual Control MATIN ([6]; 10 g ae/ha) [%] | Percent (%) Visual Control MATIN ([6]; 20 g ae/ha) [%] | Percent (%) Visual Control PAPRH ([7]; 10 g ae/ha) [%] | Percent (%) Visual Control PAPRH ([7]; 20 g ae/ha) [%] | Percent (%) Visual Control POLCO ([8]; 10 g ae/ha) [%] | Percent (%) Visual Control POLCO ([8]; 20 g ae/ha) [%] | Percent (%) Visual Control Res-PAPRH ([9]; 10 g ae/ha) [%] | Percent (%) Visual Control Res-PAPRH ([9]; 20 g ae/ha) [%] | Percent (%) Visual Control SINAR ([10]; 10 g ae/ha) [%] | Percent (%) Visual Control SINAR ([10]; 20 g ae/ha) [%] | other results
1 | C#CCOC(=O)c1nc(-c2ccc3cc[nH]c3c2F)c(F)c(N)c1Cl [Compound 5, prop-2-yn-1-yl 4-amino-3-chloro-5-fluoro-6-(7-fluoro-1H-indol-6-yl)picolinate] | 100 | 83.3 | 97.5 | 100 | 56.7 | 58.3 | 76.7 | 82.7 | 54.2 | 68.9 | 100 | 100 | 95 | 100 | 100 | 100 | 87.5 | 100 | 89 | 96.7 | Percent (%) Visual Control VERSS ([11]; 10 g ae/ha): 77.5%; Percent (%) Visual Control VERSS ([11]; 20 g ae/ha): 80.8%; Percent (%) Visual Control CHEAL 51DAAA ([12]; 10 g ae/ha): 98%; Percent (%) Visual Control CHEAL 51DAAA ([12]; 20 g ae/ha): 98%; Percent (%) Visual Control POLCO 51DAAA ([13]; 10 g ae/ha): 76.3%; Percent (%) Visual Control POLCO 51DAAA ([13]; 20 g ae/ha): 91%; Percent (%) Visual Control STEME 51DAAA ([14]; 10 g ae/ha): 66.3%; Percent (%) Visual Control STEME 51DAAA ([14]; 20 g ae/ha): 83.3%
2 | N#CCOC(=O)c1nc(-c2ccc3cc[nH]c3c2F)c(F)c(N)c1Cl [Compound 6, cyanomethyl 4-amino-3-chloro-5-fluoro-6-(7-fluoro-1H-indol-6-yl)picolinate] | 100 | 98.3 | 100 | 100 | 50 | 58.3 | 73.3 | 84.3 | 57 | 64 | 98.3 | 100 | 100 | 100 | 98.3 | 100 | 95 | 100 | 90 | 96 | Percent (%) Visual Control VERSS ([11]; 10 g ae/ha): 86.3%; Percent (%) Visual Control VERSS ([11]; 20 g ae/ha): 86.5%; Percent (%) Visual Control CHEAL 51DAAA ([12]; 10 g ae/ha): 96.8%; Percent (%) Visual Control CHEAL 51DAAA ([12]; 20 g ae/ha): 98%; Percent (%) Visual Control CHEAL 51DAAA ([12]; 40 g ae/ha): 98%; Percent (%) Visual Control POLCO 51DAAA ([13]; 10 g ae/ha): 90.3%; Percent (%) Visual Control POLCO 51DAAA ([13]; 20 g ae/ha): 84.5%; Percent (%) Visual Control POLCO 51DAAA ([13]; 40 g ae/ha): 87%; Percent (%) Visual Control STEME 51DAAA ([14]; 10 g ae/ha): 83.8%; Percent (%) Visual Control STEME 51DAAA ([14]; 20 g ae/ha): 75.8%; Percent (%) Visual Control STEME 51DAAA ([14]; 40 g ae/ha): 90%
3 | Nc1c(F)c(-c2ccc3cc[nH]c3c2F)nc(C(=O)OCc2ccccc2)c1Cl [Compound 7, benzyl 4-amino-3-chloro-5-fluoro-6-(7-fluoro-1H-indol-6-yl)picolinate, reference compound] | 99.3 | 99.3 | 92.5 | 95 | 30 | 46.7 | 65 | 73.3 | 57 | 50.5 | 100 | 100 | 85 | 100 | 97.5 | 98.8 | 92.5 | 92.5 | 90 | 94 | Percent (%) Visual Control VERSS ([11]; 10 g ae/ha): 72.5%; Percent (%) Visual Control VERSS ([11]; 20 g ae/ha): 67.5%; Percent (%) Visual Control CHEAL 51DAAA ([12]; 10 g ae/ha): 94.8%; Percent (%) Visual Control CHEAL 51DAAA ([12]; 20 g ae/ha): 98%; Percent (%) Visual Control CHEAL 51DAAA ([12]; 40 g ae/ha): 98%; Percent (%) Visual Control POLCO 51DAAA ([13]; 10 g ae/ha): 79%; Percent (%) Visual Control POLCO 51DAAA ([13]; 20 g ae/ha): 92.8%; Percent (%) Visual Control POLCO 51DAAA ([13]; 40 g ae/ha): 96.8%; Percent (%) Visual Control STEME 51DAAA ([14]; 10 g ae/ha): 73.3%; Percent (%) Visual Control STEME 51DAAA ([14]; 20 g ae/ha): 80.8%; Percent (%) Visual Control STEME 51DAAA ([14]; 40 g ae/ha): 83.3%
